Series [1] relates to absolute ethanol-induced ulcer. Kind of series: Anti-ulcerogenic activity, absolute ethanol-induced ulcer model. The class given is in vivo, male Wistar rats. The conditions noted are these: Table 2, oral, CP-1-7 50 mg/kg, ranitidine 100 mg/kg. As to the method:
(§1) The biological activities of the investigational compounds (CP1-8) were investigated as follows. Swiss albino mice of both sexes (26-30 g) and male Wistar rats (180-200 g) were purchased from the animal house of King Saud University, KSA. Animals were housed in standard polypropylene cages with wire mesh top and maintained under standard conditions (temperature 23±1.0° C., humidity 55±10%, 12 h light/12 h dark cycle). They were fed a standard pellet diet with water ad libitum and were allowed to adapt to the laboratory environment for one week before experimentation.
Evaluation of the anti-ulcerogenic activity was carried out using absolute ethanol-induced ulcer model as described by Bighettia et al. (2005). Eighteen male Wistar rats were divided into 3 groups each of 6 rats. Group 1 received the vehicle and served as control ulcer, Group 2 received ranitidine (100 mg/kg) and served as standard, and Groups 3 received the target compound at a dose of 50 mg/kg for CP1-7 and a dose of 100 mg/kg for CP8.
Rats of all groups were fasted for 24 h then all medications were administered orally. One hour after treatment, the animals received an oral dose of absolute ethanol (1 ml/200 g) and then sacrificed one hour later, by ether inhalation, the stomachs were rapidly removed, opened along their greater curvature and gently rinsed under running tap water.
Number of lesions in the glandular part of the stomach were measured under an illuminated magnifying microscope (10×). Long lesions were counted and their lengths were measured. Petechial lesions were counted, and then each five petechial lesions were taken as 1 mm of ulcer.
The lesion scores in the mucosal lesions were quantified by the scoring system (0-5) 0=no damage, 1=Local edema and inflammation without ulcers; 2=One ulcer without inflammation; 3=one to two ulcers with inflammation & lesion diameter <1 cm; 4=More than two ulcers with lesion diameter 1-2 cm; 5=Sever ulceration with lesion diameter >2 cm (Morris et al., 1989).
In order to calculate the Ulcer Index (mm), the sum of the total length of long ulcers and petechial lesions in each group of rats was divided by its number. The curative ratio was determined according to the formula: […]

Series [2] concerns acetic acid induced colitis. Kind of series: Anti-ulcerative colitis activity, acetic acid induced colitis. The class given is in vivo, rats. As to the method: as §1
Groups of animals each of 6 rats were used for assessing the anti-ulcerative colitis activity. The first group received dexamesathone at dose 0.1 mg/kg orally to serve as standard; two other groups received water orally and served as normal control and control colitis. Other groups received the tested compounds CP 1-7 at a dose 50 mg/kg and tested compound CP 8 at a dose of 100 mg/kg. Ulcerative colitis was induced by slowly infusion of 2 mL (4%, v/v) acetic acid in saline into the colon through the catheter. Two hours after the induction of colitis, animals received the 1st dose of all medication, then all groups received medication for 5 consecutive days, two hours after the last dose, animals were sacrificed by ether anesthesia, colonic segments (8 cm in length and 3 cm proximal to the anus) were excised, opened and were used for macroscopic scoring (Awaad et al., 2013).
The colonic lesions were assessed as follows. The colon specimens were weighted and wet weight/length ratio was calculated for all the rats. The specimens were examined under a dissecting microscope and the mucosal lesions were quantified by the scoring system (0-5) given by Awaad et al., (2013) after some modifications. The lesion scores were determined as follows: 0=no damage, 1=Local edema and inflammation without ulcers; 2=One ulcer without inflammation; 3=one to two ulcers with inflammation & lesion diameter <1 cm; 4=More than two ulcers with lesion diameter 1-2 cm; 5=Sever ulceration with lesion diameter >2 cm.
The ulcer area was measured using plane glass square. Each cell on the glass square was 1 mm^2 in area and the number of cells was counted and the ulcer area was determined for each colon. The ulcer index was measured by summing the lesion score and the ulcer area for each colon specimen (Awaad et al, 2013).

The subject of series [3] is liver and kidney functions. Briefly: Effect on liver and kidney functions. The class given is in vivo, Male Wister rats. The conditions noted are these: oral 50 mg/kg. As to the method: The effect on liver and kidney functions using the derivatives were investigated as follows. Male Wister rats were divided into 2 groups, each of 10 rats. The 1st group was left as a control and administered the vehicle orally, while the other group was orally administered the synthesized compounds in a dose of 50 mg/kg (for CP 1-7) or a dose of about 100 mg/kg (for CP 8). After the examination period, 6 h after the last dose blood samples were collected from the orbital plexus of rats. Samples were left to clot at room temperature for 30 min then centrifuged at 1000 rpm for 20 min.
The collected sera were used for determination of the activity of both (AST) aspirate aminotransferase and (ALT) alanine aminotransferase as liver markers. In addition, levels of blood urea, serum creatinine were also estimated as kidney markers (Awaad et al., 2013).

The mark [4] stands for this setting: Table 6, rat serum, 6 h after last dose, mean ± SD, n = 10.

Consider one compound from patent publication US9598361B1, “Amino substituted acetamide derivative” (KING SAUD UNIVERSITY, priority 2016, dated 2017).

As a reminder, the melting point is the temperature of the solid-liquid transition. The compound `NS(=O)(=O)c1ccc(NC(=O)CN2CCC(c3ccc(Cl)cc3)CC2)cc1` [CP-3, 2-[4(4-Chlorophenyl)piperidinyl]-N-(4-aminosulphonylphenyl)acetamide] showed a melting point of 270 to 272 °C. In series [1] (Rattus norvegicus, po, protection of control ulcer, read-out: % protection), the inhibition in vivo at 50 mg/kg was found to be 90.3%. Besides, the score in series [1] (lesion score 0-5, rats) stood at 2.20. For the same compound, the “effect versus dexamesathone in reducing all colitis parameters (in words)” value in series [2] (50 mg/kg versus dexamesathone 0.1 mg/kg) is recorded as “significantly more effective than dexamesathone”. The inhibition in vivo at 50 mg/kg in series [2] (Rattus norvegicus, po, 120 h, Table 4, protection of control colitis, CP-1-7 50 mg/kg, dexamethasone 0.1 mg/kg, read-out: % Protection) worked out at 64.2%. For the same compound, the Wt/l in series [2] (Table 4, colon wet weight/length ratio, oral 5 days, CP-1-7 50 mg/kg, dexamethasone 0.1 mg/kg) is given as 0.64 ± 0.05. In addition, in series [3] (setting [4]), the ALT turned out to be 36.87 ± 1.28 U/l and the AST is listed as 44.16 ± 1.57 U/l. For the same compound, the “Blood Urea” value in series [3] (Table 6, rats, 6 h after last dose, mean ± SD, n = 10) was determined as 46.02 ± 1.10 mg/dL. The “effect on serum creatinine (in words)” value in series [3] (rats) was “slightly elevated”.
